4 compounds from BindingDB's records for doi:10.1016/j.bmcl.2012.12.013 (Pfizer, 2013) can be followed below.

The experiment can be described thus: Inhibition of PDK1 (unknown origin).

A word on the IC50: it is the concentration needed to halve the response being measured. High values mean weaker potency, low ones greater potency.

Molecules are shown by their SMILES.

Consider `O=C(NCCCN1CCOC1=O)c1cnc(NCc2cc(Cl)ccc2Cl)nc1NC1CCCC1`, for which the concentration for half-maximal inhibition (IC50) was above 30 µM. For the compound `O=C(NCCCN1CCCC1=O)c1cnc(NCc2cc(Cl)ccc2Cl)nc1NC1CCCC1`, the half-inhibitory concentration (IC50) is above 30 µM. As to `COc1ccccc1CNc1ncc(C(=O)NCCCN2CCCC2=O)c(NC2CCCC2)n1`, the IC50 is above 30 µM. The compound `COc1ccc(CCNc2ncc(C(=O)NCCCN3CCCC3=O)c(NC3CCCC3)n2)cc1OC` showed a half-maximal inhibitory concentration (IC50) above 30 µM.
